We go through 2 compounds from US20260071220A1, “CONJUGATE OF NUCLEOTIDE ANALOG-CONTAINING DOUBLE-STRANDED RNAI ANALOG” (BaseCure Therapeutics LLC, priority 2022, published 2026).

Holding throughout (conditions): 24 h, positive control
One series concerns the target T1, hTLR3 (Homo sapiens, UniProt O15455).
T1 construct: host or cells: HEK BLUE hTLR3 (HEK293-derived SEAP reporter line)
T1 sequence (O15455 24-904): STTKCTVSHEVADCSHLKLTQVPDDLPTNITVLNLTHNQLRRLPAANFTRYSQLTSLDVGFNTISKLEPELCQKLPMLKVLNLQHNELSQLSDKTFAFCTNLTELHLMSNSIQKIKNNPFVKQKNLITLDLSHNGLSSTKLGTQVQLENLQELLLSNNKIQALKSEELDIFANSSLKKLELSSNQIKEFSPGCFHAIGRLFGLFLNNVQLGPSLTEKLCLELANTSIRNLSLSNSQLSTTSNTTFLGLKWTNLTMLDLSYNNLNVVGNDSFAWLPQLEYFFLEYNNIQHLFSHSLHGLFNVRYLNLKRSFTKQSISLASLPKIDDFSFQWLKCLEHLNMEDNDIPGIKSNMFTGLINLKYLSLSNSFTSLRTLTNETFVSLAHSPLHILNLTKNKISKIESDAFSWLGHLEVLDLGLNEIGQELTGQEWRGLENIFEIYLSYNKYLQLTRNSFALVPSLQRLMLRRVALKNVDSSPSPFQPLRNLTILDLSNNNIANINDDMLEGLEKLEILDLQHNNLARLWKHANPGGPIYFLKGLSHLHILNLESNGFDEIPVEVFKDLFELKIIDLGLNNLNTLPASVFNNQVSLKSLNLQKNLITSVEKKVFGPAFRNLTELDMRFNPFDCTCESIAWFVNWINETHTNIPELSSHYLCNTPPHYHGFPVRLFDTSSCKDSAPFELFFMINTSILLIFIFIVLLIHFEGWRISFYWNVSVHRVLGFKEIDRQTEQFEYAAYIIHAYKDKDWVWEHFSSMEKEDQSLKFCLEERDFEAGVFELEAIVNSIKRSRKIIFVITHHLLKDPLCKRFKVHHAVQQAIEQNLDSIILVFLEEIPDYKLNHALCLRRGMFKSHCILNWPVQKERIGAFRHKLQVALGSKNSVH
Description: Agonistic activity on hTLR3 cells (HEK BLUE, QUANTI-Blue OD650). In kind it is cell-based. How it is done:
(§1) 1) The conjugate of the present invention was diluted to a concentration that was 20 times a final concentration, the diluted conjugate was mixed with RNAiMAX-OPTI MEM (RNAiMAX:OPTI MEM=3:47) at a ratio of 1:1 and incubated for 15 min at room temperature.
(§2) 2) 10 μL of incubated conjugate of the present invention was added into a corresponding cell plate, with 10 concentrations in total, a maximum concentration being 200 nM, and double duplicated wells for each concentration.
10 μL of 0.5 μM BLOCK-iT™ Alexa Fluor® Red Fluorescent Control was added into 2 transfection positive control wells.
(§3) 4) 90 μL of cells were seeded into a 96-well plate with the conjugate at the density of 50,000 cells/well.
(§4) 5) The conjugate of the present invention and the cells were co-incubated for 24 h in an incubator under the conditions of 37° C. and 5% CO2.
7) Compound activity detection: 20 μL of cell supernatant was taken from each well and added into an experimental plate containing 180 μL of QUANTI-Blue™ reagent and then incubated for 1 h at 37° C., followed by detecting an absorbance values at 650 nm (OD650) using the multifunctional microplate reader Flexstation III.
(§5) Compound activity: the OD650 values were analyzed using GraphPad Prism software, and a dose effect curve of the compound was fit, and the EC50 value of the compound was calculated. Cell activity detection: the calculation formula of cell activity % was as follows. The cell activity % value was analyzed using GraphPadPrism software, the dose effect curve of the compound was fit, and the CC50 value of the compound on cell was calculated.

A further series has as its system HEK BLUE hTLR3. Description: Cell activity detection (CellTiter-Glo) in hTLR3 cells. In kind it is cell-based, human. The protocol:
as §1, §2, §3, §4
(§6) 8) Cell activity detection: the operation was carried out according to the method in the Celltiter-Glo specification, and a chemiluminescence signals (RLU) were detected using the multifunctional microplate reader Flexstation III.
as §5

The test system of the next series is HEK BLUE hTLR7. Description: Cell activity detection (CellTiter-Glo) in hTLR7 cells. The class given is cell-based, human. The protocol:
as §1, §2, §3, §4, §6, §5
(In general: ATP-based viability assays read luminescence as a measure of living cells.)

A further series deals with HEK BLUE hTLR8. Description: Cell activity detection (CellTiter-Glo) in hTLR8 cells. In kind it is cell-based, human. The protocol:
as §1, §2, §3, §4, §6, §5

As for “Poly (I:C) HMW [Poly(I:C) HMW, reference compound]”, on hTLR3, the EC50 – broadly, the concentration that produces a half-maximal response – came out at 59.43 ng/mL. In addition, the CC50 (usually the concentration that lowers cell viability or growth by half) in the series on HEK BLUE hTLR3 is more than 2000 ng/mL.

For the compound `CCOCc1nc2c(N)nc3ccccc3c2n1CC(C)(C)O` [Conjugate R848, R848, reference compound], the CC50 in the series with HEK BLUE hTLR7 and in the series with HEK BLUE hTLR8 was more than 10 µg/mL in each case.
